Consider 8 molecules from BindingDB's records for doi:10.1021/jm301022v (F. Hoffmann-La Roche, 2012).

SMILES strings stand for the structures.

The nature of this assay: Antagonist activity at LPA1 in human lung fibroblasts assessed as inhibition of LPA-induced contraction after 18 hrs by 3D collagen gel contraction assay.
As to `C[C@@H](OC(=O)Nc1c(-c2ccc(C3CCC(CC(=O)O)CC3)cc2)nnn1C)c1ccccc1` (stereo partly drawn), the IC50 amounted to 220 nM.
In the case of `C[C@@H](OC(=O)Nc1c(-c2ccc(-c3ccc(C4(C(=O)O)CC4)cc3)cc2)nnn1C)c1cccc(C(F)(F)F)c1`, the IC50 came to 340 nM.
For the molecule `C[C@@H](OC(=O)Nc1c(-c2ccc(-c3ccc(C4(C(=O)O)CC4)cc3)cc2F)nnn1C)c1ccccc1`, the IC50 was 20 nM.
For `C[C@@H](OC(=O)Nc1c(-c2ccc(-c3ccc(C4(C(=O)O)CC4)cc3)cc2)nnn1C)c1ccccc1` the value was 20 nM.
Next, `C[C@@H](OC(=O)Nc1c(-c2ccc(-c3ccc(CC(=O)O)cc3)cc2)nnn1C)c1ccccc1`: 390 nM.
For `Cc1nnn(-c2ccc(-c3ccc(C4(C(=O)O)CC4)cc3)cc2)c1NC(=O)O[C@H](C)c1ccccc1`, the concentration for half-maximal inhibition (IC50) was found to be 100 nM.
For `Cc1noc(-c2ccc(-c3ccc(CC(=O)O)cc3)cc2)c1NC(=O)O[C@H](C)c1ccccc1`, the IC50 came out at 150 nM.
As for `Cc1noc(-c2ccc(CSCCC(=O)O)cc2)c1NC(=O)OC(C)c1ccccc1Cl` (stereo not drawn) [3-(4-(4-((1-(2-chlorophenyl)ethoxy)carbonylamino)-3-methylisoxazol-5-yl)benzylthio)propanoic acid], the IC50 stood at 160 nM.
